Data set [1] relates to Canidae. The settings on record: oral, Dog Other, organ weight.
Data set [2] has as its system Colinus virginianus.
Data set [3] has as its system Mus musculus. The settings on record: subchronic; duration: 90 days; oral; organ weight.
For data set [4], the system named is Oryctolagus sp. The following applies: developmental; development.
The test system of data set [5] is Rattus norvegicus.

The values below come from EPA's ToxValDB 9.5 (doi:10.2903/j.efsa.2012.2496).

Broadly, the NOAEL is the highest tested level that showed no adverse finding. For `C=CCSC(=O)n1c(N)c(-c2ccccc2C)c(=O)n1C(C)C` [Fenpyrazamine], the NOAEL amounted to 25 mg/kg-day in data set [1] (chronic, duration: 1 years); 25 mg/kg-day in data set [1] (subchronic, duration: 90 days); 28 mg/kg-day in data set [3]; 30 mg/kg-day in data set [4]; 12.7 mg/kg-day in data set [5] (chronic, duration: 2 years, M, histopathology: nonneoplastic); 20.3 mg/kg-day in data set [5] (reproduction developmental, F, organ weight). The NOAEL in data set [5] (reproduction developmental, M, organ weight) was determined as 20 mg/kg-day. The same molecule gave an LC50 in data set [2] (acute, oral, diet, mortality) of more than 954 mg/kg-day. For the same molecule, the LD50 in data set [2] (acute, oral, mortality) is more than 2000 mg/kg-day; in data set [5] (acute, oral, mortality), more than 2000 mg/kg-day. Further, the NOEC in data set [2] (reproduction developmental) was determined as 82.9 mg/kg-day. In data set [5] (reproduction developmental, body weight), the NOEL stood at 28.5 mg/kg-day.
